Test results taken from article PMC6863955, “Quantitation of a Novel Engineered Anti-infective Host Defense Peptide, ARV-1502: Pharmacokinetic Study of Different Doses in Rats and Dogs” (Frontiers in Chemistry, 2019).
Like-named read-outs stand apart in the source and are kept apart here. Non-standard residues stand in square brackets, D forms with d. Residues, ends and D or L forms follow the SMILES beside them. Ac6c = NC1(C(=O)O)CCCCC1

Key:
in vivo [1] = conditions: Beagle, dog
Procedure: (§1) The objective of the study conducted at ITR Laboratories Canada Inc (Baie d'Urfe, Quebec, Canada) was to determine the pharmacokinetic profile of ARV-1502 following single intravenous or intramuscular injection administration to Sprague-Dawley rats and Beagle dogs.
(§2) For the dog study, ARV-1502 was administered once IM (divided equally over 2 sites) and once IV (1 week apart) as detailed in Table 2. Following dosing, blood was collected at the same time points noted above for the rat study.
(§3) Aliquots of rat or Beagle plasma (20 μL) were spiked with standard peptide Onc72 (0.35 μg/mL plasma, 1.2 μL). Samples were diluted with aqueous TFA in two steps (0.2% v/v, 20 μL and 0.1% v/v, 260 μL) and loaded on an Oasis HLB 96-well-SPE-plate (5 mg sorbent per well, Waters). The samples were washed twice with aqueous TFA (0.1% v/v, 1 mL) and eluted in two steps with aqueous acetonitrile (30% v/v, 150 μL) containing formic acid (0.1% v/v). The fractions were dried in a vacuum centrifuge (SpeedVac, 60°C), reconstituted with aqueous methanol (75% v/v, 20 μL) containing formic acid (0.1% v/v), and diluted with aqueous acetonitrile (3% v/v, 100 μL) containing formic acid (0.1%).
(§4) A quadrupole-Orbitrap mass spectrometer (Q Exactive plus™, Thermo Scientific) was coupled online to an uHPLC (Vanquish™, Thermo Scientific). Separation was achieved on a Jupiter C18 column (inner diameter: 1 mm, length: 150 mm, particle size: 5 μm, pore size: 130 Å, Phenomenex Ltd.) at 55°C using a flow rate of 200 μL/min and a linear gradient of 3 to 23% (v/v) aqueous acetonitrile containing formic acid (0.1%) within 5 min.
(§5) ARV-1502 was quantitated by the peak area of an extracted ion chromatogram (XIC) obtained from the MS/MS using Xcalibur 4.0.27.21 software. The peak area of ARV-1502 corrected by using the peak area of Onc72.

[2] = rat, in vivo
Procedure: (§6) A series of eight blood samples (~0.5 mL each) was collected in rats on Day 1. Following IM administration, the blood was collected at 5, 15, 30, and 45 min and at 1, 1.5, 2, and 3-h post-dose. After IV administration, blood was collected at 2, 5, 15, 30, and 45 min and at 1, 1.5, and 2-h post-dose. Animals were euthanized after the last blood collection by carbon dioxide asphyxiation followed by cervical dislocation and discarded without further examination. Safety parameters monitored on the study were mortality and clinical signs. Body weights (BW) were recorded to calculate the dose only. Blood sampling was performed for pharmacokinetic evaluation.
as §3, §4
(§7) Pharmacokinetic datasets were evaluated with a PKSolver add-in for Microsoft Excel using a non-compartmental analysis (Zhang et al., [2010]).

in vivo [3] = conditions: Sprague-Dawley, rat; for level at 0.5 h: plasma concentration after 30 min
Procedure: as §6, §3, §4, §7

[4] = dog, in vivo
Procedure: as §1, §2, §3, §4, §5

CC(C)C[C@H](NC(=O)[C@H](Cc1ccc(O)cc1)NC(=O)[C@@H]1CCCN1C(=O)[C@H](CCCNC(=N)N)NC(=O)[C@@H]1CCCN1C(=O)[C@H](CCCCN)NC(=O)[C@H](CC(=O)O)NC(=O)[C@@H]1CCCN1C(=O)[C@H](CCCNC(=N)N)NC(=O)C1(N)CCCCC1)C(=O)N1CCC[C@H]1C(=O)N[C@@H](CCCNC(=N)N)C(=O)N1CCC[C@H]1C(=O)N[C@@H](CCCNC(=N)N)C(=O)N1CCC[C@H]1C(=O)N1CCC[C@H]1C(=O)N[C@@H](CCCNC(=N)N)C(=O)N1CCC[C@H]1C(=O)N[C@H](C(=O)N[C@@H](CCCNC(=N)N)C(N)=O)C(C)C [ARV-1502, Chex1-Arg20 amide] (H-[Ac6c]RPDKPRPYLPRPRPPRPVR-NH2)
half-life (in vivo [1]; im): 15.8 min
Vd (in vivo [1]; im, 0.75 mg/kg): 8.14 L
C0 (in vivo [1]; iv, 0.075 mg/kg): 1040 ng/mL
Cmax (in vivo [1]; iv, 0.075 mg/kg): 700 ng/mL
MRT (in vivo [1]; iv, 0.075 mg/kg): 7.07 min
Vd (in vivo [1]; iv, 0.075 mg/kg): 0.735 L
half-life (in vivo [1]; iv, 0.075 mg/kg): 7.6 min
Cmax (in vivo [1]; male, im, 0.75 mg/kg): 1000 ng/mL
Tmax (in vivo [1]; male, im, 0.75 mg/kg): 15 min
level at 5 min (in vivo [1]; male, im, 0.75 mg/kg, plasma concentration at 5 min): 940 ± 280 ng/mL
level at 0.25 h (in vivo [1]; male, im, 0.75 mg/kg, plasma concentration at 15 min): 1100 ± 200 ng/mL
AUC(0-inf) (in vivo [1]; male, iv, 0.075 mg/kg): 144 ng·h/mL
level at 2 min (in vivo [1]; male, iv, 75 ug/kg, plasma concentration 2 min after administration): 700 ng/mL
level at 0.5 h (in vivo [1]; male, iv, 75 ug/kg, plasma concentration after 30 min): 7.6 ± 1.3 ng/mL
plasma concentration after 2 h ([2]; both, Sprague-Dawley, iv, 0.25 mg/kg, 2 h): 2.2 ± 0.4 ng/mL
Cmax extrapolated in proportion to dose [2]: ~ 34 μg/mL
volume of distribution after IM, fold higher than after IV [2]: more than 4 fold
AUMC0→∞ ([2]; iv, 0.25 mg/kg): 194.6 μg·min^2/mL
k ([2]; iv, 0.25 mg/kg): 0.045 min⁻¹
plasma concentration lower in male rats than in female rats ([2]; iv, 0.25 mg/kg): around 25%
volume of distribution as share of the theoretical circulating blood volume ([2]; iv, 0.25 mg/kg): 85%
half-life (in vivo [3]; im): 24.2 min
MRT (in vivo [3]; iv, 0.25 mg/kg): 6.22 min
half-life (in vivo [3]; iv, 0.25 mg/kg): 15.4 min
Cmax (in vivo [3]; both, im, 2.5 mg/kg): 12000 ng/mL
Tmax (in vivo [3]; both, im, 2.5 mg/kg): 15 min
level at 5 min (in vivo [3]; both, im, 2.5 mg/kg, plasma concentration after 5 min): 11000 ± 3300 ng/mL
level at 0.5 h (in vivo [3]; both, im, 2.5 mg/kg): ~900 ng/mL
level at 3 h (in vivo [3]; both, im, 2.5 mg/kg, plasma concentration within 3 h): 16 ng/mL
AUC(0-inf) (in vivo [3]; both, iv, 0.25 mg/kg): 521 ng·h/mL
Cmax (in vivo [3]; both, iv, 0.25 mg/kg): 3410 ng/mL
Tmax (in vivo [3]; both, iv, 0.25 mg/kg): 2 min
level at 0.5 h (in vivo [3]; both, iv, 0.25 mg/kg): 64.2 ± 7.3 ng/mL
level at 2 h (in vivo [3]; both, iv, 0.25 mg/kg, plasma concentration after 2 h): 2 to 4 ng/mL
level at 5 min (in vivo [3]; female, im, 2.5 mg/kg, plasma concentration after 5 min (initial peptide level)): 13800 ± 1900 ng/mL
level at 0.25 h (in vivo [3]; female, im, 2.5 mg/kg, plasma concentration at 15 min): 19000 ± 4900 ng/mL
level at 5 min (in vivo [3]; male, im, 2.5 mg/kg, plasma concentration after 5 min (initial peptide level)): 8200 ± 1400 ng/mL
level at 0.5 h (in vivo [3]; male, im, 2.5 mg/kg): 1000 ng/mL
clearance rate in dogs relative to the rate in rats [4]: around half
volume of distribution after IM, fold larger than the BV [4]: more than 9 fold
AUMC0→∞ ([4]; iv, 0.075 mg/kg): 820.3 μg·min^2/mL
k ([4]; iv, 0.075 mg/kg): 0.09 min⁻¹
volume of distribution as share of circulating blood volume (BV) ([4]; iv, 0.075 mg/kg): ~ 84%
plasma concentration 2 min after administration ([4]; male, Beagle, iv, 75 ug/kg, 2 min): 690 ± 150 ng/mL
